EC50 data for ten molecules are collected here from patent US9428514B2, “Bromodomain inhibitors” (AbbVie Inc., priority 2013, dated 2016).

Molecules are shown by their SMILES.

The experiment has as its system breast cancer cell line MX-1. As to the kind of experiment: MX-1 cell line proliferation assay (3-day, Cell Titer Glo). The settings on record: Homo sapiens, MX1, MX-1 cells, 72 hours, read-out: Cellular proliferation: EC50. In kind it is cell-based. How it is done: The impact of compounds of the Examples on cancer cell proliferation was determined using the breast cancer cell line MX-1 (ATCC) in a 3-day proliferation assay. MX-1 cells were maintained in RPMI supplemented with 10% FBS at 37° C. and an atmosphere of 5% CO2. For compound testing, MX-1 cells were plated in 96-well black bottom plates at a density of 5000 cells/well in 90 μL of culture media and incubated at 37° overnight to allow cell adhesion and spreading. Compound dilution series were prepared in DMSO via a 3-fold serial dilution from 3 mM to […]. The DMSO dilution series were then diluted 1:100 in phosphate buffered saline, and 10 μL of the resulted solution were added to the appropriate wells of the MX-1 cell plate. The final compound concentrations in the wells were 3, 1, 0.3, 0.1, 0.03, 0.01, 0.003, 0.001, 0.0003, 0.0001, and 0.00003 μM.
Luminescence readings from the Cell Titer Glo assay were normalized to the DMSO treated cells and analyzed using the GraphPad Prism software with sigmoidal curve fitting to obtain EC50s. The minimum significant ratio (MSR) was determined to evaluate assay reproducibility (Eastwood et al., (2006) J Biomol Screen, 11: 253-261). The overall MSR was determined to be 2.1 and a moving MSR (last six run MSR overtime) has been <2. The EC50 values are reported in Table 1 for the indicated compounds.
For the molecule `CCOc1cc(=O)n(C)cc1-c1cc(N(CCc2ccccc2Cl)S(=O)(=O)CC)ccc1Oc1ccc(F)cc1F` [Example 80, N-[2-(2-chlorophenyl)ethyl]-N-[4-(2,4-difluorophenoxy)-3-(4-ethoxy-1-methyl-6-oxo-1,6-dihydropyridin-3-yl)phenyl]ethanesulfonamide], the EC50 was over 1000 nM.

On to `CCOc1cc(=O)n(C)cc1-c1cc(N(Cc2nccs2)S(=O)(=O)CC)ccc1Oc1ccc(F)cc1F` [Example 99, N-[4-(2,4-difluorophenoxy)-3-(4-ethoxy-1-methyl-6-oxo-1,6-dihydropyridin-3-yl)phenyl]-N-(1,3-thiazol-2-ylmethyl)ethanesulfonamide], for which the EC50 was determined as 555 nM.

In the case of `CCOc1cc(=O)n(C)cc1-c1cc(NCc2ccn(CC)n2)ccc1Oc1ccc(F)cc1F` [Example 25, 5-[2-(2,4-difluorophenoxy)-5-{[(1-ethyl-1H-pyrazol-3-yl)methyl]amino}phenyl]-4-ethoxy-1-methylpyridin-2(1H)-one], the EC50 was 1540 nM.

Take `CCOc1cc(=O)n(C)cc1-c1cc(N(Cc2cnccn2)S(=O)(=O)CC)ccc1Oc1ccc(F)cc1F` [Example 95, N-[4-(2,4-difluorophenoxy)-3-(4-ethoxy-1-methyl-6-oxo-1,6-dihydropyridin-3-yl)phenyl]-N-(pyrazin-2-ylmethyl)ethanesulfonamide]: the EC50 was over 1000 nM.

On to `CCOc1cc(=O)n(C)cc1-c1cc(NC(=O)COc2ccc(C)cc2)ccc1Oc1ccc(F)cc1F` [Example 33, N-[4-(2,4-difluorophenoxy)-3-(4-ethoxy-1-methyl-6-oxo-1,6-dihydropyridin-3-yl)phenyl]-2-(4-methylphenoxy)acetamide], for which the EC50 worked out at 464 nM.

Take `CCOc1cc(=O)n(C)cc1-c1cc(NC(=O)CCCc2ccccc2)ccc1Oc1ccc(F)cc1F` [Example 38, N-[4-(2,4-difluorophenoxy)-3-(4-ethoxy-1-methyl-6-oxo-1,6-dihydropyridin-3-yl)phenyl]-4-phenylbutanamide]: the EC50 came out at 779 nM.

For `CCOc1cc(=O)n(C)cc1-c1cc(N(Cc2cn(C)cn2)S(=O)(=O)Cc2ccccc2)ccc1Oc1ccc(F)cc1F` [Example 101, N-[4-(2,4-difluorophenoxy)-3-(4-ethoxy-1-methyl-6-oxo-1,6-dihydropyridin-3-yl)phenyl]-N-[(1-methyl-1H-imidazol-4-yl)methyl]-1-phenylmethanesulfonamide], the EC50 was over 1000 nM.

Turning to `CCOc1cc(=O)n(C)cc1-c1cc(NC(=O)Cc2ccc(Oc3ccccc3)cc2)ccc1Oc1ccc(F)cc1F` [Example 37, N-[4-(2,4-difluorophenoxy)-3-(4-ethoxy-1-methyl-6-oxo-1,6-dihydropyridin-3-yl)phenyl]-2-(4-phenoxyphenyl)acetamide], the EC50 is 1440 nM.

In the case of `CCOc1cc(=O)n(C)cc1-c1cc(NC(=O)Cc2cc(F)ccc2Cl)ccc1Oc1ccc(F)cc1F` [Example 1, 2-(2-chloro-5-fluorophenyl)-N-[4-(2,4-difluorophenoxy)-3-(4-ethoxy-1-methyl-6-oxo-1,6-dihydropyridin-3-yl)phenyl]acetamide], the EC50 is 114 nM.

Consider `CCOc1cc(=O)n(C)cc1-c1cc(NC(=O)Nc2cc(C)ccc2C)ccc1Oc1ccc(F)cc1F` [Example 19, 1-[4-(2,4-difluorophenoxy)-3-(4-ethoxy-1-methyl-6-oxo-1,6-dihydropyridin-3-yl)phenyl]-3-(2,5-dimethylphenyl)urea], for which the EC50 was found to be 557 nM.
